Our source for the IC50 values is patent US20260365653A1, “IRREVERSIBLE MUTEGFR INHIBITORS” (Bayer Aktiengesellschaft, priority 2022, published 2026).

Several values for one entry are separate records, joined by “and”; a condition that tells them apart may be missing. Equal entries are not always repeated.

For experiment [1], the target named is T1, mutEGFR (D770_N771insSVD) (Homo sapiens, UniProt P00533, DUP768-770).
T1 construct: GST-EGFR #3 (SVD between D770 and N771); made in house; host or cells: Sf9 insect cells (baculovirus)
T1 sequence (P00533 with tags, fused parts or gaps DUP768-770): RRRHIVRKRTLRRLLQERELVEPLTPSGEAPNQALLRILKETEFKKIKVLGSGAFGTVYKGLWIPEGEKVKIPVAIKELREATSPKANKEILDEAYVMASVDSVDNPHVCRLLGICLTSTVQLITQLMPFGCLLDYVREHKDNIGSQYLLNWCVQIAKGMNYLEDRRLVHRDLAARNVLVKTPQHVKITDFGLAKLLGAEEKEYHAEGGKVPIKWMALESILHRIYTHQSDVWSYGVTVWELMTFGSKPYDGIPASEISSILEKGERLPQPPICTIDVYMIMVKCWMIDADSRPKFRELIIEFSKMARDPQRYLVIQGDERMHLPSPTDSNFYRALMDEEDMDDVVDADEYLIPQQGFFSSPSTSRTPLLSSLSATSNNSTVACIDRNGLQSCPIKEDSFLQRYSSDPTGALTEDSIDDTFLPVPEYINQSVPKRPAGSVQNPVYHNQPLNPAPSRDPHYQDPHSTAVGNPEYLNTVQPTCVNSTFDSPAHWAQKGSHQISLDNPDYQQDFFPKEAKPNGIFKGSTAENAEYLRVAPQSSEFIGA
The experiment can be described thus: Exon20-Mutant-EGFR (D770_N771insSVD) kinase assay (TR-FRET). The class given is biochemical.

In a further experiment the test system is BA/F3 (insSVD) cells. The experiment can be described thus: Ba/F3-EGFR-insSVD cell survival assay (Cell Titer-Glo). The class given is cell-based. Summed up: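 CellTiter-Glo luminescence read after 48 h compound exposure at 37° C. Cells: IL-3-independent Ba/F3 lines transduced with EGFR-insSVD or EGFR-insSVD T790M, maintained on 10 ng/ml EGF and seeded at 4000 per well.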

Experiment [2] concerns the target T2, mutEGFR (D770_N771insNPG, T790) (Homo sapiens, UniProt P00533, INS770NPG/T790M).
T2 construct: exact insNPG construct not described; in-house EGFR proteins were N-terminal GST fusions from baculovirus/insect cells (borders R669-A1210 given only for WT, insSVD, insASV)
The experiment can be described thus: mutEGFR (D770_N771insNPG, T790) kinase assay. The class given is biochemical. An excerpt: The different EGFR proteins used in the biochemical kinase activity inhibition assays were generated inhouse by expression in insect cells using Baculo Virus system and subsequent purification as described in the following paragraphs.
The cDNAs encoding the various protein sequences from human EGFR human (P00533) were optimized for expression in eukaryotic cells and synthesized by the GeneArt Technology at Life Technologies.

Where [3] appears, read: mutEGFR (D770_N771insSVD) kinase assay IC50, Table 2a, D770_N771insSVD, 2 mM ATP.
[4] abbreviates: mutEGFR (D770_N771insSVD) kinase assay IC50, Table 2b (from US Priority Patent Application), mutEGFR D770_N771insSVD.
[5] abbreviates: Mus musculus, BaF3, 48 h, Table 3a, cell survival, Cell Titer-Glo, with 10 ng/ml EGF, without IL-3.

T2 sequence (P00533 with tags, fused parts or gaps INS770NPG/T790M limits assumed): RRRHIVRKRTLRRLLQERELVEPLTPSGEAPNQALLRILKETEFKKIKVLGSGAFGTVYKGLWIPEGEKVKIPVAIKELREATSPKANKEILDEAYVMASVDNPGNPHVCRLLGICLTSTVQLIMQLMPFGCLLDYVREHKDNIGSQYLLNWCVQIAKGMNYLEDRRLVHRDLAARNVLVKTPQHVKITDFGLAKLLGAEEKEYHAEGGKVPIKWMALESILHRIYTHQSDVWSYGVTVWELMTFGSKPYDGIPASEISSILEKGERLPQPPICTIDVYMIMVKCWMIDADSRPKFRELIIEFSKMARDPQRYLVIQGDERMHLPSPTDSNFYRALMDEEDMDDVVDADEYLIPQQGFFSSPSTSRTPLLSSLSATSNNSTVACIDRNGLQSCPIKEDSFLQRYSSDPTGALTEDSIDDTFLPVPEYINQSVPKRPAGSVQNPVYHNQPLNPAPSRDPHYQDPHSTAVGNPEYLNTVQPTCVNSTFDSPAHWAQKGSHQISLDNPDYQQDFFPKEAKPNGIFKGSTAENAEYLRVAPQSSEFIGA

Usually IC50 stands for the point on the concentration scale where inhibition reaches its midpoint. Read a high IC50 as weaker potency. As for `C=CC(=O)N1CCn2nc(-c3ccc(F)cc3)c(-c3ccnc4[nH]cc(C)c34)c2C1C` (single isomer, unassigned; isomer 1) [Example 262, 1-(2-(4-fluorophenyl)-4-methyl-3-(3-methyl-1H-pyrrolo[2,3-b]pyridin-4-yl)-6,7-dihydropyrazolo[1,5-a]pyrazin-5(4H)-yl) prop-2-en-1-one (isomer 1)], the IC50 in experiment [1] (setting [3]) turned out to be 1620 nM; in the experiment with BA/F3 (insSVD) cells (Table 3a, cell survival, Cell Titer-Glo, with 10 ng/ml EGF, without IL-3, 48 h), 452 nM; in experiment [2] (Table 2a, D770_N771insNPG), 396 nM.

With `C/C=C/C(=O)N1CCn2nc(-c3ccc(F)cc3)c(-c3ccncc3)c2C1` [Example 23, (2E)-1-[2-(4-fluorophenyl)-3-(pyridin-4-yl)-6,7-dihydropyrazolo[1,5-a]pyrazin-5(4H)-yl]but-2-en-1-one], the IC50 was 208 nM in experiment [1] (setting [3]); 208 nM in experiment [1] (setting [4]); 3850 nM in the experiment with BA/F3 (insSVD) cells (setting [5]); 804 nM in experiment [2] (Table 2a, D770_N771insNPG).

With `C=CC(=O)N1CCn2nc(-c3ccc4ccccc4c3F)c(-c3ccncc3)c2C1` [Example 111, 1-[2-(1-fluoronaphthalen-2-yl)-3-(pyridin-4-yl)-6,7-dihydropyrazolo[1,5-a]pyrazin-5(4H)-yl]prop-2-en-1-one], the IC50 in experiment [1] (setting [3]) was 0.13 nM; with BA/F3 (insSVD) cells (setting [5]), 27.5 nM; in experiment [2] (Table 2a, D770_N771insNPG) it was 0.259 nM.

As to `CN(C)C/C=C/C(=O)N1CCn2nc(-c3ccc(F)cc3)c(-c3ccnc(NC(=O)C4CC4)c3)c2C1` [Example 8, N-(4-{5-[(2E)-4-(dimethylamino)but-2-enoyl]-2-(4-fluorophenyl)-4,5,6,7-tetrahydropyrazolo[1,5-a]pyrazin-3-yl}pyridin-2-yl)cyclopropanecarboxamide], the IC50 amounted to 0.393 nM in experiment [1] (setting [3]); 0.393 nM in experiment [1] (setting [4]); 20.4 nM in the experiment with BA/F3 (insSVD) cells (setting [5]); 20.4 nM in the experiment on BA/F3 (insSVD) cells (Mus musculus, BaF3, 48 h, Table 3b, Ba/F3 EGFR-insSVD); 0.765 nM in experiment [2] (Table 2a, D770_N771insNPG); 0.765 nM in experiment [2] (Table 2b (from US Priority Patent Application), mutEGFR D770_N771insNPG).

For `CN(C)C/C=C/C(=O)N1CCn2nc(-c3ccc(F)cc3)c(-c3ccnc4[nH]ccc34)c2C1` [Example 98, (2E)-4-(dimethylamino)-1-[2-(4-fluorophenyl)-3-(1H-pyrrolo[2,3-b]pyridin-4-yl)-6,7-dihydropyrazolo[1,5-a]pyrazin-5(4H)-yl]but-2-en-1-one], the IC50 in experiment [1] (setting [3]) was found to be 10.4 nM; in the experiment with BA/F3 (insSVD) cells (setting [5]), 209 nM; in experiment [2] (Table 2a, D770_N771insNPG) it was 11.6 nM.

As to `C=CC(=O)N1CCn2nc(-c3ccc(F)c4ccccc34)c(-c3ccncc3)c2C1` [Example 106, 1-[2-(4-fluoronaphthalen-1-yl)-3-(pyridin-4-yl)-6,7-dihydropyrazolo[1,5-a]pyrazin-5(4H)-yl]prop-2-en-1-one], the IC50 in experiment [1] (setting [3]) amounted to 0.528 nM; with BA/F3 (insSVD) cells (setting [5]), 214 nM; in experiment [2] (Table 2a, D770_N771insNPG), 0.546 nM.

As to `C=CC(=O)N1Cc2c(-c3ccncc3)c(-c3ccc(C(F)(F)F)cc3F)nn2CC1C` (racemic) [Example 230, 1-[(6RS)-2-[2-fluoro-4-(trifluoromethyl)phenyl]-6-methyl-3-(pyridin-4-yl)-6,7-dihydropyrazolo[1,5-a]pyrazin-5(4H)-yl]prop-2-en-1-one], the IC50 in experiment [1] (setting [3]) is 0.416 nM; in the experiment with BA/F3 (insSVD) cells (setting [5]), 15.6 nM; in experiment [2] (Table 2a, D770_N771insNPG), 1.04 nM.

Turning to `O=C(/C=C/CN1CC(F)(F)C1)N1CCn2nc(-c3ccc(F)cc3)c(-c3ccncc3)c2C1` [Example 84, (2E)-4-(3,3-difluoroazetidin-1-yl)-1-[2-(4-fluorophenyl)-3-(pyridin-4-yl)-6,7-dihydropyrazolo[1,5-a]pyrazin-5(4H)-yl]but-2-en-1-one], the IC50 in experiment [1] (setting [3]) turned out to be 13.4 nM; in the experiment on BA/F3 (insSVD) cells (setting [5]), 1230 nM; in experiment [2] (Table 2a, D770_N771insNPG) it was 50.6 nM.

As to `Cc1c[nH]c2nccc(-c3c(-c4ccc(Cl)cc4F)nn4c3CN(C(=O)/C=C/CN(C)C)CC4)c12` [Example 57, (2E)-1-[2-(4-chloro-2-fluorophenyl)-3-(3-methyl-1H-pyrrolo[2,3-b]pyridin-4-yl)-6,7-dihydropyrazolo[1,5-a]pyrazin-5(4H)-yl]-4-(dimethylamino)but-2-en-1-one], the IC50 in experiment [1] (setting [3]) was 165 nM; in the experiment on BA/F3 (insSVD) cells (setting [5]), 85.7 nM; in experiment [2] (Table 2a, D770_N771insNPG), 256 nM.

With `C=CC(=O)N1CCn2nc(-c3ccc(Cl)cc3F)c(-c3c(F)cnc4[nH]ccc34)c2C1` [Example 51, 1-[2-(4-chloro-2-fluorophenyl)-3-(5-fluoro-1H-pyrrolo[2,3-b]pyridin-4-yl)-6,7-dihydropyrazolo[1,5-a]pyrazin-5(4H)-yl]prop-2-en-1-one], the IC50 in experiment [1] (setting [3]) turned out to be 6.64 nM; in the experiment on BA/F3 (insSVD) cells (setting [5]), 54.7 nM; in experiment [2] (Table 2a, D770_N771insNPG), 25.7 nM.

In the case of `CN(C)C/C=C/C(=O)N1CCn2nc(-c3ccc(C(F)(F)F)c(F)c3)c(-c3ccncc3)c2C1` [Example 151, (2E)-4-(dimethylamino)-1-{2-[3-fluoro-4-(trifluoromethyl)phenyl]-3-(pyridin-4-yl)-6,7-dihydropyrazolo[1,5-a]pyrazin-5(4H)-yl}but-2-en-1-one], the IC50 in experiment [1] (setting [3]) came to 3.2 nM; in the experiment with BA/F3 (insSVD) cells (setting [5]), 405 nM; in experiment [2] (Table 2a, D770_N771insNPG) it was 12.1 nM.

As for `C=CC(=O)N1Cc2c(-c3ccncc3)c(-c3ccc4ccsc4c3)nn2CC1C` (racemic) [Example 234, 1-[(6RS)-2-(1-benzothiophen-6-yl)-6-methyl-3-(pyridin-4-yl)-6,7-dihydropyrazolo[1,5-a]pyrazin-5(4H)-yl]prop-2-en-1-one], the IC50 in experiment [1] (setting [3]) is 0.17 nM; in the experiment with BA/F3 (insSVD) cells (setting [5]), 122 nM; in experiment [2] (Table 2a, D770_N771insNPG) it was 0.331 nM.

`C=C(C)C(=O)N1CCn2nc(-c3ccc(F)cc3)c(-c3ccncc3)c2C1` [Example 24, 1-[2-(4-fluorophenyl)-3-(pyridin-4-yl)-6,7-dihydropyrazolo[1,5-a]pyrazin-5(4H)-yl]-2-methylprop-2-en-1-one]: the IC50 in experiment [1] (setting [3]) is 1150 nM; in experiment [1] (setting [4]) it was 1150 nM; in the experiment with BA/F3 (insSVD) cells (setting [5]), 9980 nM; in experiment [2] (Table 2a, D770_N771insNPG), 14600 nM and > 20000 nM.

Turning to `CC1c2c(-c3ccncc3)c(-c3ccc(Cl)cc3F)nn2CCN1C(=O)/C=C/CN(C)C` (racemic) [Example 244, (2E)-1-[(RS)-2-(4-chloro-2-fluorophenyl)-4-methyl-3-(pyridin-4-yl)-6,7-dihydropyrazolo[1,5-a]pyrazin-5(4H)-yl]-4-(dimethylamino)but-2-en-1-one], the IC50 in experiment [1] (setting [3]) worked out at 0.749 nM; with BA/F3 (insSVD) cells (setting [5]), 168 nM; in experiment [2] (Table 2a, D770_N771insNPG), 1.99 nM.

Turning to `Cc1c[nH]c2nccc(-c3c(-c4ccc(C(F)(F)F)cc4)nn4c3CN(C(=O)/C=C/CN(C)C)[C@H](C)C4)c12` [Example 266, (2E)-4-(dimethylamino)-1-[(6R)-6-methyl-3-(3-methyl-1H-pyrrolo[2,3-b]pyridin-4-yl)-2-[4-(trifluoromethyl)phenyl]-6,7-dihydropyrazolo[1,5-a]pyrazin-5(4H)-yl]but-2-en-1-one], the IC50 in experiment [1] (setting [3]) came to 462 nM; with BA/F3 (insSVD) cells (setting [5]) it was 121 nM; in experiment [2] (Table 2a, D770_N771insNPG) it was 3580 nM.

As to `C=CC(=O)N1CCn2nc(-c3ccc(C(F)F)cc3)c(-c3ccncc3)c2C1` [Example 131, 1-{2-[4-(difluoromethyl)phenyl]-3-(pyridin-4-yl)-6,7-dihydropyrazolo[1,5-a]pyrazin-5(4H)-yl}prop-2-en-1-one], the IC50 in experiment [1] (setting [3]) was 1.79 nM; in the experiment on BA/F3 (insSVD) cells (setting [5]), 61.3 nM; in experiment [2] (Table 2a, D770_N771insNPG), 8.01 nM.
